One experiment deals with T1, LPAR1 (Homo sapiens, UniProt Q92633).
T1 construct: host or cells: U2OS
Put plainly: LPAR1 FLIPR Assay. It counts as cell-based. The note with it: U2OS cells stably expressing LPAR1, LPA (EC80), Calcium 6 FLIPR dye; for Emax: read-out: Maximum Inhibition. In outline:
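U2OS cells stably expressing LPAR1 were loaded with Calcium 6 dye for 2 h at 37° C, preincubated 3 min with compound (11-point 3-fold series), then stimulated with LPA at EC80. Fluorescence at 515-575 nm was recorded by FLIPR; IC50 came from four-parameter logistic fits of ratio data.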

For experiment [1], the system named is LPA-induced MCP-1 in NRK-49F cells. The experiment in a line: LPA-induced MCP-1 AlphaLISA assay. The class given is cell-based. Conditions: Rattus norvegicus, final LPA 10 μM, 7 hours; for Emax: read-out: Maximum Inhibition. The protocol: Two days prior to the experiment, NRK-49F cells were plated at 8,000 cells/well in 100 μL of growth medium [DMEM (Life Technologies #11995) with 5% dFBS (Life Technologies #30067-334), 100 units/mL penicillin/streptomycin (Life Technologies #15140122)] in 96-well clear flat bottom polystyrene TC-treated microplate (Corning® #3599) and incubated in humidified 10% CO2 at 37° C. One day prior to the experiment, the cell medium was removed and serum free medium [100 μL/well, DMEM (Life Technologies #11995) with 0.1% fatty acid free BSA (Sigma #A6003)] was added with continued incubation in humidified 10% CO2 at 37° C. overnight. On the day of the assay, test compounds were 1:3 serially diluted in 100% DMSO using a BioTek Precision™ system and then transferred (equivalent volume of DMSO as controls) to a plate in serum free medium [DMEM with 0.1% fatty acid free BSA] using a Biomek® NX workstation to give a 2× compound solution. The cell culture medium was removed, and cells were pre-treated with 50 μL/well of 2× compound in serum free medium [DMEM with 0.1% fatty acid free BSA] at 37° C. for 30 minutes. Following the incubation, 50 μL/well of 20 μM LPA diluted in serum free medium [DMEM with 0.1% fatty acid free BSA] was added to the cells. Serum free medium [DMEM with 0.1% fatty acid free BSA] was used as substitution for low control wells while 20 µM LPA was added to high control wells and test compound wells. 200 µM LPA was added to EC100 wells. Final DMSO concentration was 1% in every well. Final LPA concentration in test compound wells and high control wells was 10 μM. […] After the incubation, cell supernatant was transferred to a new 96 well polypropylene plate (Greiner #651201) where it was sealed and stored at −80° C. On the detection day, 5 μL of thawed cell supernatant was transferred to a new white opaque 384-well microplate (Perkin Elmer #6007299). An AlphaLISA® mouse/rat CCL2/MCP1, Immunoassay Research kit (PerkinElmer #AL509F) was used. A mixture (20 μL/well) of AlphaLISA® Anti-Analyte Accept beads (10 μg/mL final) and Biotinylated Antibody Anti-Analyte (freshly prepared, 1 nM final) was added. The mixture in the wells was mixed and then incubated at room temperature for 1 hour. Then SA-Donor beads (25 μL/well, 40 μg/mL final) were added giving a final volume of 50 μL/well. The contents of the wells were mixed and then incubated at room temperature for 0.5 hour (protect from light). The plate was read using the default Envision™ Alpha protocol (PerkinElmer). IC50 values were calculated from curve fits of the ratio data using a four-parameter logistic Hill equation (Assay Explorer 3.3 Client).
In general terms: Bead proximity is the source of the signal in Alpha formats.

As a reminder, the IC50 is the concentration that gives 50% inhibition.

T1 sequence (Q92633 whole entry): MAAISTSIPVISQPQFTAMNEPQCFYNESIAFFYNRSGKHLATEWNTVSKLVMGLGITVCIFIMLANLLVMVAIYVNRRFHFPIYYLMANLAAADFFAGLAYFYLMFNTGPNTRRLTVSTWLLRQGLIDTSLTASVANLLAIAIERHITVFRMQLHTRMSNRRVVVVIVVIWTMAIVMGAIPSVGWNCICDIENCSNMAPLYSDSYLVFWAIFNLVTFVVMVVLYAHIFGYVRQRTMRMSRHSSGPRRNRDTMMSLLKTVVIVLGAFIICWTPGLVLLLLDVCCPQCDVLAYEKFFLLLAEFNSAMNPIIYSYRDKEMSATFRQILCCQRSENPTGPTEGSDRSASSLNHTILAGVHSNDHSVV

In the case of `COc1cc(C(=O)N(CCCc2ccccc2)C[C@H](O)CCC(=O)O)cc(OC)c1C` [Example 120, (4R)-5-[(3,5-dimethoxy-4-methylbenzoyl)(3-phenylpropyl)amino]-4-hydroxypentanoic Acid], the IC50 on LPAR1 came to 39 nM; in experiment [1], 5240 nM. In addition, the results for the Emax (at LPAR1; in experiment [1]) were 81% and 65%, respectively.
Take `COc1cc(C(=O)N(CCCOC(=O)NS(=O)(=O)c2ccc(F)cc2)CCCc2ccccc2)cc(OC)c1C` [Example 145, 3-[(3,5-dimethoxy-4-methylbenzoyl)(3-phenylpropyl)amino]propyl (4-fluorobenzene-1-sulfonyl)carbamate]: the figures for the IC50 (on LPAR1; in experiment [1]) were 437 nM and 3960 nM, respectively. The figures for the Emax (on LPAR1; in experiment [1]) were 51% and 59%, respectively.
`CCOc1cc(OCC)cc(C(=O)N(CCCCC(=O)O)CCCc2ccc(C)o2)c1` [Example 176, 5-{(3,5-diethoxybenzoyl)[3-(5-methylfuran-2-yl)propyl]amino}pentanoic Acid]: at LPAR1, the IC50 stood at 84 nM and the Emax came to 64%. Also, in experiment [1], the IC50 is greater than 8190 nM and the Emax came to 53%.
With `COc1cc(C(=O)N(CCCCC(=O)O)CCCCc2ccccc2)cc(OC)c1C` [Example 96, 5-[(3,5-dimethoxy-4-methylbenzoyl)(4-phenylbutyl)amino]pentanoic Acid], the IC50 at LPAR1 is 19900 nM; in experiment [1] it was greater than 10000 nM. For the same compound, the values for the Emax (on LPAR1; in experiment [1]) were 62% and 52%, respectively.
Take `COc1ccc(C2(C(=O)N(CCCCC(=O)O)CCCc3cccc(F)c3)CC2)cc1` [Example 92, 5-{[3-(3-fluorophenyl)propyl][1-(4-methoxyphenyl)cyclopropane-1-carbonyl]amino}pentanoic Acid]: the IC50 came to 60 nM at LPAR1 and 4490 nM in experiment [1]. Besides, the Emax on LPAR1 amounted to 90%; in experiment [1], 72%.
Consider `COc1cc(C(=O)N(CCCc2ccc(C)o2)CCCC(C)(C)C(=O)O)cc(OC)c1C` [Example 180, 5-{(3,5-dimethoxy-4-methylbenzoyl)[3-(5-methylfuran-2-yl)propyl]amino}-2,2-dimethylpentanoic Acid], for which, at LPAR1, the IC50 came out at 48 nM and the Emax amounted to 100%. Moreover, in experiment [1], the IC50 was 105 nM and the Emax is 93%.
For `COc1ccc(C(=O)N(CCCCC(=O)O)CCCc2ccccc2)cc1` [Example 84, 5-[(4-methoxybenzoyl)(3-phenylpropyl)amino]pentanoic Acid], the IC50 on LPAR1 was greater than 30000 nM; in experiment [1] it was greater than 10000 nM. Besides, the Emax at LPAR1 worked out at 7%; in experiment [1] it was 31%.
On to `COc1ccc(C2(C(=O)N(CCCCC(=O)O)CCCc3cccc(Cl)c3)CC2)cc1` [Example 102, 5-{[3-(3-chlorophenyl)propyl][1-(4-methoxyphenyl)cyclopropane-1-carbonyl]amino}pentanoic Acid], for which, at LPAR1, the IC50 is 47 nM and the Emax stood at 85%. In experiment [1], the IC50 is 1550 nM and the Emax worked out at 80%.
Take `COc1cc(C(=O)N(CCCc2cc(Cl)cc(Cl)c2)CCOCC(=O)O)cc(OC)c1C` [Example 127, (2-{[3-(3,5-dichlorophenyl)propyl](3,5-dimethoxy-4-methylbenzoyl)amino}ethoxy)acetic Acid]: on LPAR1, the IC50 is greater than 10000 nM and the Emax is 7%. In experiment [1], the IC50 is greater than 10000 nM and the Emax was determined as 14%.
In the case of `COc1cc(OC)cc(C(=O)N(CCCCC(=O)O)CCCc2c(F)cccc2F)c1` [Example 137, 5-{[3-(2,6-difluorophenyl)propyl](3,5-dimethoxybenzoyl)amino}pentanoic Acid], on LPAR1, the IC50 amounted to 92 nM and the Emax was 64%. In experiment [1], the concentration for half-maximal inhibition (IC50) is greater than 10000 nM and the Emax worked out at 28%.
For the compound `O=C(O)CCCCN(CCCc1ccccc1)C(=O)c1ccc2c(c1)OCO2` [Example 80, 5-[(2H-1,3-benzodioxole-5-carbonyl)(3-phenylpropyl)amino]pentanoic Acid], on LPAR1, the half-maximal inhibitory concentration (IC50) was greater than 30000 nM and the Emax is 37%. Moreover, in experiment [1], the IC50 was greater than 10000 nM and the Emax was 37%.
As to `COc1cc(C(=O)N(CCCCC(=O)NS(=O)(=O)C(F)(F)F)CCCc2ccccc2)cc(OC)c1C` [Example 150, 3,5-dimethoxy-4-methyl-N-{5-oxo-5-[(trifluoromethanesulfonyl)amino]pentyl}-N-(3-phenylpropyl)benzamide], on LPAR1, the IC50 turned out to be 45 nM and the Emax turned out to be 73%. In addition, in experiment [1], the IC50 came to 2030 nM and the Emax turned out to be 67%.
For `COc1cc(C(=O)N(CCCCC(=O)NS(=O)(=O)C2CC2)CCCc2ccccc2)cc(OC)c1C` [Example 119, N-{5-[(cyclopropanesulfonyl)amino]-5-oxopentyl}-3,5-dimethoxy-4-methyl-N-(3-phenylpropyl)benzamide], on LPAR1, the IC50 was 97 nM and the Emax is 92%. For the same compound, in experiment [1], the IC50 stood at 1170 nM and the Emax was 80%.
On to `COc1cc(C(=O)N(CCCc2ccccc2)CC(=O)N[C@@H](Cc2cccs2)C(=O)O)cc(OC)c1C` [Example 47, N-(3,5-dimethoxy-4-methylbenzoyl)-N-(3-phenylpropyl)glycyl-3-thiophen-2-ylalanine], for which, on LPAR1, the 50% inhibitory concentration (IC50) was determined as 79 nM and the Emax came to 88%. Also, in experiment [1], the IC50 is 4700 nM and the Emax amounted to 58%.
On to `CCS(=O)(=O)NC(=O)CCCCN(CCCc1ccccc1)C(=O)c1cc(OC)c(C)c(OC)c1` [Example 123, N-{5-[(ethanesulfonyl)amino]-5-oxopentyl}-3,5-dimethoxy-4-methyl-N-(3-phenylpropyl)benzamide], for which, at LPAR1, the IC50 was 46 nM and the Emax came out at 94%. Also, in experiment [1], half-maximal inhibition (IC50) was put at 793 nM and the Emax is 85%.
For the compound `COc1cc(C(=O)N(CCCCC(=O)O)CCCc2ccccc2)cc2oc(C)cc12` [Example 31, 5-[(4-methoxy-2-methyl-1-benzofuran-6-carbonyl)(3-phenylpropyl)amino]pentanoic Acid], at LPAR1, the IC50 turned out to be 45 nM and the Emax amounted to 87%. For the same compound, in experiment [1], half-maximal inhibition (IC50) required 5320 nM and the Emax stood at 68%.
For `COc1cc(OC)cc(C(=O)N(CCCCC(=O)O)CCCc2ccccc2Cl)c1` [Example 135, 5-{[3-(2-chlorophenyl)propyl](3,5-dimethoxybenzoyl)amino}pentanoic Acid], on LPAR1, the IC50 was greater than 10000 nM and the Emax was found to be 32%. In experiment [1], the IC50 was greater than 10000 nM and the Emax worked out at 25%.
On to `CCC1CCC(NC(=O)CN(CCCc2ccccc2)C(=O)c2cc(OC)c(C)c(OC)c2)(C(=O)O)CC1` (centres unmarked) [Example 104, 1-{[N-(3,5-dimethoxy-4-methylbenzoyl)-N-(3-phenylpropyl)glycyl]amino}-4-ethylcyclohexane-1-carboxylic Acid], for which the IC50 at LPAR1 turned out to be 94 nM; in experiment [1], 2900 nM. Further, the Emax was found to be 95% at LPAR1 and 74% in experiment [1].
Consider `CCCCC(CCCN(CCCc1ccccc1)C(=O)c1cc(OC)c(C)c(OC)c1)C(=O)O` (centres unmarked) [Example 93, 2-{3-[(3,5-dimethoxy-4-methylbenzoyl)(3-phenylpropyl)amino]propyl}hexanoic Acid], for which, at LPAR1, the IC50 is 43 nM and the Emax was determined as 96%. Moreover, in experiment [1], half-maximal inhibition (IC50) was put at 819 nM and the Emax is 84%.
As to `COc1cc(C(=O)N(CCCCC(=O)O)CCc2ccccc2)cc(OC)c1C` [Example 95, 5-[(3,5-dimethoxy-4-methylbenzoyl)(2-phenylethyl)amino]pentanoic Acid], the half-maximal inhibitory concentration (IC50) on LPAR1 is greater than 30000 nM; in experiment [1], greater than 10000 nM. Also, the values for the Emax (on LPAR1; in experiment [1]) were 10% and 18%, respectively.

The values above are taken from US20190119200A1, “TERTIARY AMIDES AND METHOD OF USE” (AbbVie Inc., priority 2016, published 2019).
